Data reported in US20100292185A1, “BETA-LACTAMASE INHIBITORS” (priority 2009, published 2010).
Where a name gives a salt, the structure may show the parent alone. Read-outs that look alike come from different tables or passages of the source.

Legend:
[1] = tested on: E. cloacae expressing the Class C P99+; assay: In vitro antibacterial assay of β-lactamase inhibition (broth microdilution MIC), E. cloacae P99+; format: cell-based
Source text: (§1) To determine the ability of test compounds to potentiate the inhibition of the growth of bacterial strains producing beta-lactamase enzymes, classic cell based screening assays were employed. Five bacteria strains producing beta-lactamase enzymes were used: K. pneumoniae expressing the Class A Extended Spectrum Beta-Lactamase (ESBL) CTX-M-15, E. coli expressing the Class A ESBL SHV-5, E. cloacae expressing the Class C P99+, K. pneumoniae expressing the Class A carbapenemase KPC-2, and P. aeruginosa expressing the Class B metallo β-lactamase VIM-2. In order to evaluate the ability of test compounds to inhibit beta-lactamase activity, Applicants used a modification of the broth microdilution assay. The assay was conducted in Cation Adjusted Mueller Hinton Broth (CAMHB, BD # 212322, BD Diagnostic Systems, Sparks, Md.). Bacteria strains were grown for 3-5 hours in CAMBH broth. All five strains were grown in presence of 50 μg/mL ampicillin to ensure resistance is maintained. In the meantime, test compounds were diluted in DMSO to a 0.1 mg/mL stock. The compounds were added to a microtiter plate and were diluted in 2-fold serial dilutions in CAMHB in a final concentration range of 8 μg/mL to 0.015 μg/ml. […] Each of these compound plates are made in quadruplicate, one for each bacteria strain. In addition to the titration of test compounds the MICs of a panel of cephalosporins is also tested to ensure the strains are behaving consistently from test to test. Once the test compound and cephalosporin are added the plates can be inoculated. Inocula are conducted according to CLSI broth microdilution method. After inoculation the plates are incubated for 16-20 hours at 37° C. then the Minimal Inhibitory Concentration (MIC) of the test compound is determined visually.
(§2) Using the methodology described above, examples of the current invention were evaluated for their ability to inhibit the growth of β-lactamase producing bacteria in the presence of a β-lactam antibiotic.

[2] = tested on: K. pneumoniae expressing the Class A carbapenemase KPC-2; assay: microbe, parasite or virus in culture; format: cell-based
Source text: as §1, §2

OXA-23 β-lactamase = molecular target: T1, OXA-23 β-lactamase (Acinetobacter baumannii, UniProt Q9L4P2); assay: β-lactamase enzyme inhibition assay (nitrocefin substrate), OXA-23 crude extract; format: biochemical; conditions: nitrocefin 100 μM, 37° C., PBS pH 7.0; read-out: OXA-23 IC50
T1 construct: crude β-lactamase extracts were prepared from 20 ml overnight cultures; endogenous in cells; host or cells: Acinetobacter baumannii cells containing OXA-23 (crude freeze-thaw extract)
Experimental: For OXA-23 β-lactamase, crude β-lactamase extracts were prepared from 20 ml overnight cultures with shaking. Acenitobacter baumanni cells containing OXA-23 were further diluted 10-fold and grown to mid-log phase (OD at 600 nm, 0.5-0.8) in Mueller-Hinton II (MH-II) broth at 37° C. The cells were pelleted at 5000 g, washed and resuspended in 2 mL PBS pH 7.0. The β-lactamases were extracted by four cycles of freezing and thawing followed by centrifugation. β-lactamase activity in the extracts was measured with the chromogenic cephalosporin nitrocefin. The amount of protein in each β-lactamase preparation was determined by the bicinchoninic acid (BCA) assay.
(§3) β-lactamase Inhibition. To determine the level of inhibition of β-lactamase enzymes, compounds were diluted in PBS at pH 7.0 to yield concentrations between 100 and 0.005 μM in microtiter plates. An equal volume of diluted enzyme stock was added, and the plates were incubated at 37° C. for 10 min. Nitrocefin solution was then dispensed as substrate into each well at a final concentration of 100 μM, and the plates were immediately read with the kinetic program at 486 nm for 10 min on the SPECTRAMAX® Plus^384 (high-throughput microplate spectrophotometer; Molecular Devices Corp., Sunnyvale, Calif.). Maximum rates of metabolism were then compared to those in control wells (without inhibitors), and percentages of enzyme inhibition were calculated for each concentration of inhibitor. The concentration of inhibitor needed to reduce the initial rate of hydrolysis of substrate by 50% (IC50) was calculated as the residual activity of β-lactamase at 486 nm using the SoftMax Pro 5.0 software (Molecular Devices Corp.).

[3] = tested on: K. pneumoniae expressing the Class A Extended Spectrum Beta-Lactamase (ESBL) CTX-M-15; assay: In vitro antibacterial assay of β-lactamase inhibition (broth microdilution MIC), K. pneumoniae CTX-M-15; format: cell-based
Source text: as §1, §2

KPC-2 β-lactamase = molecular target: T2, KPC-2 β-lactamase (Klebsiella pneumoniae, UniProt Q9F663); assay: β-lactamase enzyme inhibition assay (nitrocefin substrate), KPC-2; format: biochemical
T2 construct: expressed as native untagged proteins; made in house; host or cells: E. coli BL21(DE3)
Experimental: (§4) Isolation of β-lactamases. For SHV-5, p99 AmpC, KPC-2 and CTX-M15 β-lactamases, E. coli BL21(DE3) bacterial cells carrying expression plasmids (expressed as native untagged proteins) for the individual β-lactamases were grown in 1 L of Superbroth (Teknova Inc. Hollister, Calif.) supplemented with 100 μg/ml kanamycin and 1×5052 (0.5% glycerol, 0.05% glucose and 0.2% α-lactose) at 35° C. for 18-20 hours. Cells were harvested by centrifugation (4,000×g, 4° C., 20 min), and resuspended in 50 ml of 10 mM HEPES pH 7.5 (1/20 of the initial volume). The cells were lysed by sonication (5 pulses of 45 seconds) at 45 W on ice. The lysates were clarified by centrifugation at 10,000×g for 40 minutes at 4° C. Samples were diluted 5-fold in 50 mM sodium acetate pH 5.0, stored overnight at 4° C., after which they were centrifuged at 10,000×g for 30 minutes to clarify, and filtered through 0.45 μm filters. The samples were loaded onto a 5 ml Capto S sepharose cation exchange column (GE Healthcare) pre-equilibrated with 50 mM sodium acetate pH 5.0. The column was washed with 5 column volumes of 50 mM sodium acetate pH 5.0 to wash out unbound protein and a linear gradient of NaCl (0 to 500 mM) was used to elute the protein (over 16 CV) from the column. Fractions were assayed for β-lactamase activity using Centa (Calbiochem, Gibbstown, N.J.) as a reporter β-lactamase substrate for activity in the isolated fractions. Active fractions were pooled, concentrated and further purified by gel filtration chromatography on a Superdex 75 prep grade gel filtration column (GE Healthcare, Piscataway, N.J.) pre-equilibrated in 50 mM Hepes pH 7.5, 150 mM NaCl. Active fractions were pooled concentrated, quantitated by BCA protein determination (Thermo Scientific, Rockford, Ill.), and frozen at −80° C. in 20% glycerol until use.
as §3
(§5) Using the methodology described above, examples of the current invention were evaluated for their ability to inhibit β-lactamase enzymes. The results of these assays are summarized in Table 2 for representative enzymes across different subtypes (note SHV-5 and CTXM-15 exemplify different subclasses of Ambler Class A Extended Spectrum Beta Lactamases, KPC-2 exemplifies Class A carbapenemases, P99 represents chromosomal Class C AmpC, VIM-2 exemplifies subclass B1 of metallo-β-lactamases, and OXA-23 represents chromosome-encoded Class D oxacillin-hydrolyzing β-lactamases), NT=not tested.

p99 AmpC β-lactamase = molecular target: T3, p99 AmpC β-lactamase (Enterobacter cloacae, UniProt P05364); assay: β-lactamase enzyme inhibition assay (nitrocefin substrate), P99 AmpC; format: biochemical
T3 construct: expressed as native untagged proteins; made in house; host or cells: E. coli BL21(DE3)
Experimental: as §4, §3, §5

[4] = molecular target: T4, VIM-2 metallo β-lactamase (Pseudomonas aeruginosa, UniProt Q9K2N0); assay: β-lactamase enzyme inhibition assay (nitrocefin substrate), VIM-2; format: biochemical; conditions: nitrocefin 100 μM, 37° C., PBS pH 7.0; read-out: VIM-2 IC50
T4 construct: made in house
Experimental: as §4
For VIM-2 metallo (β-lactamase, the procedure was identical with the following exceptions: 1) the protein was not pH adjusted to pH 5 with 50 mM sodium acetate, 2) the chromatography step was changed to a 5 ml Q sepharose anion exchange column pre-equilibrated with 50 mM Hepes pH 7.5, and 3) elution of the protein was achieved by a linear gradient of NaCl (0-600 mM). Finally, the VIM-2 purification required a second run (3rd step) on the Q sepharose anion exchange column to achieve acceptable purity (>90%).
as §3, §5

[5] = tested on: E. coli expressing the Class A ESBL SHV-5; assay: In vitro antibacterial assay of β-lactamase inhibition (broth microdilution MIC), E. coli SHV-5; format: cell-based
Source text: as §1, §2

SHV-5 β-lactamase = molecular target: T5, SHV-5 β-lactamase (Klebsiella pneumoniae, UniProt P0A3M1); assay: β-lactamase enzyme inhibition assay (nitrocefin substrate), SHV-5; format: biochemical
T5 construct: expressed as native untagged proteins; made in house; host or cells: E. coli BL21(DE3)
Experimental: as §4, §3, §5

CTX-M15 β-lactamase = molecular target: T6, CTX-M15 β-lactamase (Escherichia coli, UniProt Q9EXV5); assay: β-lactamase enzyme inhibition assay (nitrocefin substrate), CTXM-15; format: biochemical
T6 construct: expressed as native untagged proteins; made in house; host or cells: E. coli BL21(DE3)
Experimental: as §4, §3, §5

[6] = tested on: P. aeruginosa expressing the Class B metallo β-lactamase VIM-2; assay: In vitro antibacterial assay of β-lactamase inhibition (broth microdilution MIC), P. aeruginosa VIM-2; format: cell-based; conditions: in presence of Ceftazidime 16 μg/mL (Examples 1-56)
Source text: as §1, §2

[7] = in presence of Ceftazidime 8 μg/ml (Examples 1-56)
[8] = nitrocefin 100 μM, 37° C., PBS pH 7.0, read-out: P99 AmpC IC50
[9] = in presence of Piperacillin 16 μg/ml (Examples 57-65)

T6 sequence (Q9EXV5 entry or part of it): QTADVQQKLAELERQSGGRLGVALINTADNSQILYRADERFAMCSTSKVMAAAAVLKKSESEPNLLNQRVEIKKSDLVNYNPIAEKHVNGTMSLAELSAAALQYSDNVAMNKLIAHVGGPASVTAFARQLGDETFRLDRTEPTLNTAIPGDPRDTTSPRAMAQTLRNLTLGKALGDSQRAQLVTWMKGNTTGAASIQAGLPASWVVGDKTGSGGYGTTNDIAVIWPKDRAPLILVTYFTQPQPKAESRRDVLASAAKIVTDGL
T5 sequence (P0A3M1 22-286): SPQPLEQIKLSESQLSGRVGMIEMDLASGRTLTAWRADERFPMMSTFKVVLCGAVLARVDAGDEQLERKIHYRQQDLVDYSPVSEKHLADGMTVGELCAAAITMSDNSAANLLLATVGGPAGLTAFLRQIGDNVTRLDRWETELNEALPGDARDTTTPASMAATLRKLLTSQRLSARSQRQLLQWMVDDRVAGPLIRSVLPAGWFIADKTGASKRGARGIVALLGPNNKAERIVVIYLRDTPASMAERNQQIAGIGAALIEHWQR
T1 sequence (Q9L4P2 18-273): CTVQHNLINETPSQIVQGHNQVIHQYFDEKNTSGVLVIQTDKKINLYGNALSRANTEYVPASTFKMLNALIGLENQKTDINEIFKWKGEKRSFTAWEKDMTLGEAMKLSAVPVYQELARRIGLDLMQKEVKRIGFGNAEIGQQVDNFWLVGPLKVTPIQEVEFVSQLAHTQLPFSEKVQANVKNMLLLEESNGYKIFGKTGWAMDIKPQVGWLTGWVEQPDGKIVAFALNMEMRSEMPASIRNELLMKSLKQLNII
T2 sequence (Q9F663 25-293 limits assumed): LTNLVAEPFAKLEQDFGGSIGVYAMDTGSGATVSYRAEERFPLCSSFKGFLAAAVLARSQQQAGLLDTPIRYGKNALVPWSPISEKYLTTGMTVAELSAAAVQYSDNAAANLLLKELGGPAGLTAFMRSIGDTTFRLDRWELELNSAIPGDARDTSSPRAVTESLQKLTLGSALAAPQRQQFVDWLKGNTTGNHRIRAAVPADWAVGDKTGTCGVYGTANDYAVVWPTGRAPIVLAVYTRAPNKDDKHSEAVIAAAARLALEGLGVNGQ
T3 sequence (P05364 21-381): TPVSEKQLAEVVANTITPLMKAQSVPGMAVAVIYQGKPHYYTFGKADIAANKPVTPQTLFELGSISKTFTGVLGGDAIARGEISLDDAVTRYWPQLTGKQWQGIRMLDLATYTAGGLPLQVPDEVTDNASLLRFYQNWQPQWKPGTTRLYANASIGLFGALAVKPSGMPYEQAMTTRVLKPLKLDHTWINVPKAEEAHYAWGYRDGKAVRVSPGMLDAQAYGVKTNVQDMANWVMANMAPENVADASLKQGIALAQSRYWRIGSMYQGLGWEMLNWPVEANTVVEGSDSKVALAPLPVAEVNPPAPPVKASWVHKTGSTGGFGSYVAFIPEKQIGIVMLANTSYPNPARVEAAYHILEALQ

SMILES	MIC of example compound, E. cloacae P99+ [1, 7] [µg/mL]	MIC of example compound, K. pneumoniae KPC-2 [2, 7] [µg/mL]	IC50 (OXA-23 β-lactamase) [nM]	MIC of example compound, K. pneumoniae CTX-M-15 [3, 7] [µg/mL]	IC50 (KPC-2 β-lactamase) [nM]	IC50 (p99 AmpC β-lactamase) [nM]	IC50 [4] [nM]	MIC of example compound, E. coli SHV-5 [5, 7] [µg/mL]	IC50 (SHV-5 β-lactamase) [nM]	IC50 (CTX-M15 β-lactamase) [nM]	IC50 (p99 AmpC β-lactamase; [8]) [nM]	MIC of example compound, P. aeruginosa VIM-2 [6] [µg/mL]	MIC of example compound, E. cloacae P99+ [1, 9] [µg/mL]	MIC of example compound, K. pneumoniae KPC-2 [2, 9] [µg/mL]	MIC of example compound, K. pneumoniae CTX-M-15 [3, 9] [µg/mL]	MIC of example compound, E. coli SHV-5 [5, 9] [µg/mL]
O=C(N[C@@H](Cc1cccc(C(=O)O)c1O)B(O)O)c1ccc(CN2CCNCC2)cc1 [Example 5, 2(R)-3-[2-(4-(1-piperazinylmethyl)benzoylamino)-2-borono-ethyl]-2-hydroxy-benzoic acid Hydrochloride]	2	0.03	> 1000	1	1	1	510	4	> 1000	6	–	–	–	–	–	–
CCNCc1ccc(C(=O)N[C@@H](Cc2cccc(C(=O)O)c2O)B(O)O)cc1.Cl [Example 6, 2(R)-3-[2-(4-(N-ethylaminomethyl)benzoylamino)-2-borono-ethyl]-2-hydroxy-benzoic acid Hydrochloride]	0.25	0.03	> 1000	1	4	–	57	4	> 1000	4	1	–	–	–	–	–
Cl.Nc1ccc(C(=O)N[C@@H](Cc2cccc(C(=O)O)c2O)B(O)O)cn1 [Example 7, (2R)-3-{2-[(2-Amino-pyridine-5-carbonyl)-amino]-2-borono-ethyl}-2-hydroxy-benzoic acid formate salt]	0.12	0.03	508	0.12	4	–	820	1	320	1	1	–	–	–	–	–
O=C(Cc1ccc(C[n+]2ccccc2)cc1)N[C@@H](Cc1cccc(C(=O)O)c1O)B(O)O [Example 42, formate]	–	–	153	–	10	4	> 1000	–	2	4	–	–	–	–	–	–
Nc1ccc(CC(=O)N[C@@H](Cc2cccc(C(=O)O)c2O)B(O)O)cn1 [Example 46, (1R)-1-(6-amino-pyridin-3-yl-acetylamino)-2-(2-hydroxy-3-carboxyphenyl)ethyl-1-boronic acid formate]	0.06	0.007	209	0.03	3	–	–	0.06	0.7	5	4	>8	–	–	–	–
NCc1ccc(/C(=N/O)C(=O)N[C@@H](Cc2cccc(C(=O)O)c2O)B(O)O)cc1 [Example 53, 3-{2(R)-[2-(4-aminomethyl-phenyl)-2-hydroxyimino-acetylamino]-2-borono-ethyl}-2-hydroxy-benzoic acid hydrochloride]	–	–	350	–	39	–	312	–	29	12	–	–	–	–	–	–
O=C(Cc1ccc(CNc2ccccn2)cc1)N[C@@H](Cc1cccc(C(=O)O)c1O)B(O)O [Example 57, (1R)-1-{2-[4-(pyridin-2-ylaminomethyl)-phenyl]-acetylamino}-1-[(3-carboxy-2hydroxy)benzyl]-methylboronic acid formate]	–	–	156	–	13	–	–	–	2	4	3	–	4	4	>8	1
O=C(O)CNCc1ccc(CC(=O)N[C@@H](Cc2cccc(C(=O)O)c2O)B(O)O)cc1 [Example 58, (1R)-1-(2-{4-[(1-Carboxymethyl-amino)-methyl]-phenyl}-acetylamino)1-[(3-carboxy-2-hydroxy)benzyl]-methylboronic acid formate]	–	–	182	–	13	–	–	–	0.5	4	6	–	2	0.5	>8	0.5
